Experimental data as given in US7615651B2, “Diaryl, dipyridinyl and aryl-pyridinyl derivatives and uses thereof” (Pfizer Inc., priority 2006, dated 2009).
Where two headings read alike, the source gives them in different places.

Assays:
Assay type in all cases: biochemical
opioid receptor delta = target: T1, opioid receptor delta (Homo sapiens, UniProt P41143); assay: GTPγ[35S] binding assay, antagonism of BW-373U86
T1 construct: expressed in transfected cells
Method: (§1) Membranes were prepared from cells as described (Bass et al, 1996). GTPγ[5S] binding assays were performed in a 96 well FlashPlate™ format in duplicate using […] GTPγ[^35S] and 5 μg membrane per well in assay buffer composed of 50 mM Tris HCl, pH 7.4, 5 mM MgCl2, 1 mM EDTA, 100 mM NaCl, 30 μM GDP, 0.1% bovine serum albumin and the following protease inhibitors: 100 μg/ml bacitracin, 100 μg/ml benzamidine, 5 μg/ml aprotinin, 5 μg/ml leupeptin. The assay mix was then incubated at 30° C. with increasing concentrations of antagonist (10^−10 M to 10^−5 M) for 10 minutes and challenged with the agonists BW-373U86 (1 nM), dynorphin-A (10 nM), […] (1 μM) for opioid receptors delta, kappa, and mu, respectively. The assays were performed at 30° C. for one hour. The FlashPlates were then centrifuged at 2000×g for 10 minutes. Stimulation of GTPγ[^35S] binding was then quantified using a Wallac Microbeta and Ki calculations were done using Prism™ by Graphpad.

opioid receptor mu = target: T2, opioid receptor mu (Homo sapiens, UniProt P35372); assay: GTPγ[35S] binding assay, antagonism of endorphin
T2 construct: expressed in transfected cells
Method: as §1

opioid receptor kappa = target: T3, opioid receptor kappa (Homo sapiens, UniProt P41145); assay: GTPγ[35S] binding assay, antagonism of dynorphin-A
T3 construct: expressed in transfected cells
Method: as §1

[1] = read-out: Delta functional Ki (GTPγ[35S] binding)
[2] = read-out: Mu functional Ki (GTPγ[35S] binding)
[3] = read-out: Kappa functional Ki (GTPγ[35S] binding)
[4] = read-out: Delta functional (GTPγ[35S] binding Ki)
[5] = read-out: Mu functional (GTPγ[35S] binding Ki)
[6] = read-out: Kappa functional (GTPγ[35S] binding Ki)
[7] = average Ki, antagonism of BW-373U86 (1 nM) stimulated GTPγ[35S] binding, delta opioid receptor membranes, read-out: Delta functional (GTPγ[35S] binding Ki)
[8] = average Ki, antagonism of endorphin (1 μM) stimulated GTPγ[35S] binding, mu opioid receptor membranes, read-out: Mu functional (GTPγ[35S] binding Ki)
[9] = average Ki, antagonism of dynorphin-A (10 nM) stimulated GTPγ[35S] binding, kappa opioid receptor membranes, read-out: Kappa functional (GTPγ[35S] binding Ki)

T3 sequence (P41145 whole entry): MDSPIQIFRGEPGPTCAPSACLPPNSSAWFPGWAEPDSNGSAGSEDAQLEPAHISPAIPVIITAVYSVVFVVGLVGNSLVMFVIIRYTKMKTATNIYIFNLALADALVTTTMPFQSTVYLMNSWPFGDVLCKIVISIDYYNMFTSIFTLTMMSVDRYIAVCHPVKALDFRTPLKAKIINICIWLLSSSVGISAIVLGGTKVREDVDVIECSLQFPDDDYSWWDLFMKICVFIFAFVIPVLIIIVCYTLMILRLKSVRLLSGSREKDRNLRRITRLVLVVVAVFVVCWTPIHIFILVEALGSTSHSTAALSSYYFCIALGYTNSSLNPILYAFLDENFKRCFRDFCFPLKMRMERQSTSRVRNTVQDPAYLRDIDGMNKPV
T2 sequence (P35372 whole entry): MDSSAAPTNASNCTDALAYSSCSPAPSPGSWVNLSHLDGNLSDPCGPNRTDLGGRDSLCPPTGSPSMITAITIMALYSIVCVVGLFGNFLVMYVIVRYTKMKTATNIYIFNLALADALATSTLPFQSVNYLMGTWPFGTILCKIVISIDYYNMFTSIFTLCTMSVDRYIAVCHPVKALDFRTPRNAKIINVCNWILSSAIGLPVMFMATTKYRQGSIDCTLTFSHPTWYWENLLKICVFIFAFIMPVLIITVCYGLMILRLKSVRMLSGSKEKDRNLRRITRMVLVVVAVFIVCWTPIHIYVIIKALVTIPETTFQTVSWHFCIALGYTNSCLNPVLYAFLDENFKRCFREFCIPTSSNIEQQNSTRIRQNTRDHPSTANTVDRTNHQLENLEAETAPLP
T1 sequence (P41143 whole entry): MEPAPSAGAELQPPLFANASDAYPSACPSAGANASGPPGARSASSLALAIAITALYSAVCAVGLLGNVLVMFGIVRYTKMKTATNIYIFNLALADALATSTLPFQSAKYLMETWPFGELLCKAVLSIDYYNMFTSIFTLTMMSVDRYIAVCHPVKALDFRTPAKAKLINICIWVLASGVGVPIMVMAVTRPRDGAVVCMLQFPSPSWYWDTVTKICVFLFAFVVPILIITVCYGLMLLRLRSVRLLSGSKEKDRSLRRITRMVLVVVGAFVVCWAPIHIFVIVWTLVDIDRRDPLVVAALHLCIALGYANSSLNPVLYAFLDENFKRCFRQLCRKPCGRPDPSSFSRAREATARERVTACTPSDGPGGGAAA

| Compound | Ki (opioid receptor delta; [1]) | Ki (opioid receptor mu; [2]) | Ki (opioid receptor kappa; [3]) | Ki (opioid receptor delta; [4]) | Ki (opioid receptor mu; [5]) | Ki (opioid receptor kappa; [6]) | other results |
| --- | --- | --- | --- | --- | --- | --- | --- |
| CC(C)CCNCc1ccc(-c2ccc(-c3ncn[nH]3)cc2C(F)(F)F)cc1 [7B-05] | 29.7 nM | 14.2 nM | 47.4 nM |  |  |  |  |
| Cc1cc(CNCC2CCCO2)ccc1-c1ccc(C(N)=O)cc1C (stereo not drawn) [4B-72] | 13 nM | 9.83 nM | 5.44 nM |  |  |  |  |
| Cc1cc(CNCC2CCOCC2)ccc1-c1ccc(C(N)=O)cc1C [4B-71] | 6.2 nM | 8.37 nM | 6.91 nM |  |  |  |  |
| Cc1cc(C(N)=O)ccc1-c1ccc(CN[C@@H]2CCCc3ccccc32)cc1 [4B-28] |  |  |  | 26.3 nM | 26.1 nM | 4.12 nM |  |
| CC(C)CCNCc1ccc(-c2cccc(C(N)=O)c2)cc1Cl [1A-13] |  |  |  |  |  |  | Ki (opioid receptor delta; [7]): 33.6 nM; Ki (opioid receptor mu; [8]): 25 nM; Ki (opioid receptor kappa; [9]): 23.4 nM |
| CCc1cc(C(N)=O)ccc1-c1cc(F)c(CNCCC(C)C)c(F)c1 [4B-81] | 15.2 nM | 13.4 nM | 16.8 nM |  |  |  |  |
| COCCNCc1ccc(-c2cccc(C(N)=O)c2)c(Cl)c1 [6A-07] |  |  |  |  |  |  | Ki (opioid receptor delta; average Ki, antagonism of BW-373U86 (1 nM) at delta opioid receptor membranes, read-out: Delta functional Ki (GTPγ[35S] binding)): 0.0652 nM; Ki (opioid receptor mu; average Ki, antagonism of endorphin (1 μM) at mu opioid receptor membranes, read-out: Mu functional Ki (GTPγ[35S] binding)): 78.4 nM; Ki (opioid receptor kappa; average Ki, antagonism of dynorphin-A (10 nM) at kappa opioid receptor membranes, read-out: Kappa functional Ki (GTPγ[35S] binding)): 58.1 nM |
| COCCNCc1c(F)cc(-c2ccc(C(N)=O)cc2C)cc1F [1B-09] |  |  |  |  |  |  | Ki (opioid receptor delta; [7]): 11 nM; Ki (opioid receptor mu; [8]): 70.5 nM; Ki (opioid receptor kappa; [9]): 17.9 nM |
| Cc1cc(C(N)=O)ccc1-c1cc(F)c(CNC[C@@H]2CCCO2)c(F)c1 [4B-55] | 19 nM | 30.7 nM | 8.55 nM |  |  |  |  |
| NC(=O)c1ccc(-c2ccc(CNC3Cc4ccccc4C3)cn2)c(Cl)c1 [1D-06] |  |  |  | 3.45 nM | 1.1 nM | 4.13 nM |  |
| Cc1cc(C(N)=O)ccc1-c1cc(F)c(CNC2Cc3ccccc3C2)c(F)c1 [1B-07] |  |  |  | 0.0993 nM | 0.0494 nM | 0.241 nM |  |
| NC(=O)c1ccc(-c2ccc(CNCCC3CCOCC3)cc2Cl)c(Cl)c1 [4B-67] | 2.95 nM | 7.22 nM | 3.62 nM |  |  |  |  |
| Cc1cc(C)n(CC(C)NCc2ccc(-c3cccc(C(N)=O)c3)c(Cl)c2)n1 (stereo not drawn) [6A-05] | 17.6 nM | 5.25 nM | 27.2 nM |  |  |  |  |
| Cc1cc(C(N)=O)ccc1-c1c(C)cc(CNC2Cc3ccccc3C2)cc1Cl [4B-84] | 0.0778 nM | 0.0145 nM | 0.593 nM |  |  |  |  |
| NC(=O)c1cccc(-c2ccc(CN[C@H]3c4ccccc4C[C@H]3O)cc2Cl)c1 [6A-03] | 35.9 nM | 2.94 nM | 9.35 nM |  |  |  |  |
| CC(C)CCNCc1cc(Cl)c(-c2cccc(C(N)=O)c2)c(Cl)c1 [1A-03] |  |  |  |  |  |  | Ki (opioid receptor delta; [7]): 4.87 nM; Ki (opioid receptor mu; [8]): 1.2 nM; Ki (opioid receptor kappa; [9]): 3.76 nM |
| Cc1cc(C(N)=O)ccc1-c1ccc(CNC2Cc3ccccc3C2)nc1 [1D-04] |  |  |  | 0.868 nM | 0.715 nM | 1.88 nM |  |
| Cc1cc(C(N)=O)ccc1-c1ccc(CNCCOC(C)C)cc1 [4B-06] |  |  |  | 6.42 nM | 10.3 nM | 8.53 nM |  |
| CC(C)CCNCc1ccc(-c2ccc(C(N)=O)cc2C(F)(F)F)cc1 [4B-02] |  |  |  | 15.4 nM | 57.2 nM | 29.7 nM |  |
| CCc1cc(C(N)=O)ccc1-c1ccc(CNCCC(C)C)cc1 [4B-48] | 16.1 nM | 12 nM | 13.9 nM |  |  |  |  |
| Cc1cc(C(N)=O)ccc1-c1ccc(CN2Cc3ccccc3C2)cc1 [4B-13] |  |  |  | 159 nM | 207 nM | 33 nM |  |
| Cc1cc(C(N)=O)ccc1-c1ccc(CNCCC(C)C)c(OCc2ccccc2)c1 [4B-85] | 0.588 nM | 2.48 nM | 5.48 nM |  |  |  |  |
| NC(=O)c1ccc(-c2ccc(CNC3Cc4ccccc4C3)cc2)c(Cl)c1 [4B-30] |  |  |  | 0.378 nM | 0.41 nM | 0.842 nM |  |
| Cc1cc(C(N)=O)ccc1-c1ccc(CNC2(c3ccccc3)CC2)cc1 [4B-24] |  |  |  | 22.7 nM | 1290 nM | 400 nM |  |
| Cc1cc(C(N)=O)ccc1-c1cc(F)c(CNCCC(C)C)cc1F [4B-74] | 4.8 nM | 4.37 nM | 4.45 nM |  |  |  |  |
| CCc1cc(C(N)=O)ccc1-c1c(C)cc(CNCCC2CCOCC2)cc1C [4B-76] | 0.501 nM | 1.02 nM | 8.11 nM |  |  |  |  |
| COc1cc(-c2cccc(C(N)=O)c2)ccc1CNCCC(C)C [1A-05] |  |  |  |  |  |  | Ki (opioid receptor delta; [7]): 10.7 nM; Ki (opioid receptor mu; [8]): 14 nM; Ki (opioid receptor kappa; [9]): 16.6 nM |
